Test results taken from patent US20130023563A1, “AMIDINOANILINE DERIVATIVE” (AJINOMOTO CO., INC., priority 2010, published 2013).
Structures can show the parent of a compound that is named as a salt.

Columns and labels:
Format in all cases: biochemical
[1] = target: FXa (Homo sapiens, UniProt P00742); assay: Measurement of inhibitory activity against activated factor X (chromogenic substrate S-2222); conditions: 0.015 U/ml FXa, 0.2 mM S-2222, absorbance 405 nm; read-out: FXa (pIC50) (converted)
FXa, sequence (P00742 235-488 limits assumed): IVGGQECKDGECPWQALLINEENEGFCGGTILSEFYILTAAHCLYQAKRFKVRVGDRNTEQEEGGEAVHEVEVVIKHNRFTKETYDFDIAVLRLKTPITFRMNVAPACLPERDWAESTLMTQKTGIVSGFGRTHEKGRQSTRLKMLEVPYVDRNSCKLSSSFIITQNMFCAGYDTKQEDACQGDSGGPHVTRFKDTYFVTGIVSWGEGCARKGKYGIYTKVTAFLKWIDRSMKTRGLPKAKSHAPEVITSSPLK
FXa, sequence (P00742 41-179 partner limits assumed): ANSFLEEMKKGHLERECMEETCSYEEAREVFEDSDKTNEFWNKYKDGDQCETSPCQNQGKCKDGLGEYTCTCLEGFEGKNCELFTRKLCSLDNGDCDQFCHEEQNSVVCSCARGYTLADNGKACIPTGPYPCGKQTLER
Method: Experimental Example 1 Measurement of Inhibitory Activity Against Activated Factor X Activity
(§1) Using a 96-well plate (#3396, Costar), 100 mM Tris-HC1 buffer (130 μL) containing 0.02% Tween 20, 0.1% PEG6000 and 0.2M NaCl was admixed with 0.015 U/ml FXa (10 μL) and a test compound (10 μL) for 10 min and a color developing substrate 0.2 mM S-2222 (50 μL) was added. Using a microplate reader Benchmark Plus (BIO-RAD), the reaction rate was measured from the time course changes at absorbance 405 nm. Using the reaction rate of the control as 100%, the negative logarithmic value of the concentration that can suppress the reaction rate of the control by 50% was taken as the pIC50 value.

[2] = target: activated factor IIa (thrombin) (Homo sapiens, UniProt P00734); assay: Measurement of inhibitory activity against activated factor II (chromogenic substrate S-2238); conditions: 0.125 U/ml thrombin, 0.1 mM S-2238, absorbance 405 nm; read-out: FIIa (pIC50) (converted)
Method: Experimental Example 2 Measurement of Inhibitory Activity Against Activated Factor II (FIIa, Thrombin)
as §1, with “mM Tris-HCl” for “mM Tris-HC1”, “with 0.125” for “with 0.015”, “U/ml activated factor IIa (thrombin)” for “U/ml FXa”, “substrate 0.1” for “substrate 0.2”, “mM S-2238” for “mM S-2222”

[3] = tested on: human plasma; assay: Anti-blood coagulant activity, aPTT method, Sysmex Cs-2000i (Experimental Example 3-2); conditions: negative logarithmic value of the concentration that prolongs aPTT of the control 2 times
Method: Experimental Example 3-2 Measurement of Anti-Blood Coagulant Activity
An aPTT measurement method using totally automatic blood coagulation time measuring apparatus Sysmex Cs-2000i was used. A 10 mg/ml DDVP solution (DDVP standard product, Wako) (8 μL) and a test compound solution (40 μL) were placed in a sample tube (MS-18, Japan Medical Science), human plasma (standard human plasma for blood coagulation test, GCH-100A, Sysmex) (360 μL) was added and the mixture was used as a test sample. The test sample (50 μL) was incubated at 37° C. for 1 min, data fi APTT (rabbit brain-derived cephalin, DADE Behiring) (50 μL) was added, and the mixture was further incubated at 37° C. for 2 min. To the sample solution was added 0.02M calcium chloride (50 μL), and the time until plasma coagulation was automatically measured.
As the anti-blood coagulant activity, the negative logarithmic value of the concentration that prolongs aPTT of the control 2 times is shown as paPTT2.

Row | IC50 [1] | IC50 [2] | Compound | paPTT2 [3]
1 | 2.95 nM | 15500 nM | CN(c1cccc(C(=N)N)c1)[C@@H](Cc1ccccc1)C(=O)Oc1ccc(C(=N)N2CCCC2)cc1 [compound of Ex. 46, 4-[imino(pyrrolidin-1-yl)methyl]phenyl N-{3-[amino(imino)methyl]phenyl}-N-methyl-L-phenylalaninate 2 trifluoroacetate] | 6.87
2 | 3.09 nM | 977 nM | CCCC[C@@H](C(=O)Oc1ccc(C(=N)N2CCCC2)cc1OC)N(C)c1cccc(C(=N)N)c1 [compound of Ex. 43, 4-[imino(pyrrolidin-1-yl)methyl]-2-methoxyphenyl N-{3-[amino(imino)methyl]phenyl}-N-methyl-L-norleucinate 2 trifluoroacetate] | 6.90
3 | 224 nM | 28200 nM | N=C(N)c1cccc(N2C[C@H](O)C[C@H]2C(=O)Oc2ccc(C(=N)N3CCCC3)cc2)c1 [compound of Ex. 15, 4-[imino(pyrrolidin-1-yl)methyl]phenyl (4R)-1-[(3-[amino(imino)methyl]phenyl]-4-hydroxy-L-prolinate 2 trifluoroacetate] | 5.68
4 | 13.8 nM | 51300 nM | CC(=N)N1CCC(Oc2ccc(OC(=O)[C@H](CO)N(C)c3cccc(C(=N)N)c3)cc2)CC1 [compound of Ex. 42, 4-[(1-ethanimidoylpiperidin-4-yl)oxy]phenyl N-{3-[amino(imino)methyl]phenyl}-N-methyl-L-serinate 2 trifluoroacetate] | 6.64
5 | 11.2 nM | 25700 nM | CC(C)C[C@@H](C(=O)Oc1ccc(C(=N)N2CCCC2)cc1)N(C)c1cccc(C(=N)N)c1 [compound of Ex. 29, 4-[imino(pyrrolidin-1-yl)methyl]phenyl N-{3-[amino(imino)methyl]phenyl}-N-methyl-L-leucinate 2 trifluoroacetate] | 6.72
6 | 31.6 nM | 7080 nM | COc1cc(C(=N)N2CCCC2)ccc1OC(=O)[C@H](C)N(C)c1cccc(C(=N)N)c1 [compound of Ex. 36, 4-[imino(pyrrolidin-1-yl)methyl]-2-methoxyphenyl N-{3-[amino(imino)methyl]phenyl}-N-methyl-L-alaninate 2 trifluoroacetate] | 6.67
7 | 21.4 nM | 33100 nM | CC(=N)N1CCC(Oc2ccc(OC(=O)[C@@H](C)N(C)c3cccc(C(=N)N)c3)cc2)CC1 [compound of Ex. 7, 4-[(1-ethanimidoylpiperidin-4-yl)oxy]phenyl N-{3-[amino(imino)methyl]phenyl}-N-methyl-D-alaninate 2 trifluoroacetate] | 6.85
8 | 15.1 nM | 25700 nM | CCC(C)[C@H](C(=O)Oc1ccc(C(=N)N2CCCC2)cc1F)N(C)c1cccc(C(=N)N)c1 (stereo partly drawn) [compound of Ex. 39, 2-fluoro-4-[imino(pyrrolidin-1-yl)methyl]phenyl N-{3-[amino(imino)methyl]phenyl}-N-methyl-L-isoleucinate 2 trifluoroacetate] | 6.50
9 | 14.1 nM | 2240 nM | COC(=O)c1cc(C(=N)N2CCCC2)ccc1OC(=O)[C@H]1CCCCN1c1cccc(C(=N)N)c1 [compound of Ex. 51, 4-[imino(pyrrolidin-1-yl)methyl]-2-(methoxycarbonyl)phenyl (2R)-1-{3-[amino(imino)methyl]phenyl}piperidine-2-carboxylate 2 trifluoroacetate] | 6.79
10 | 5.37 nM | 6920 nM | CC(=N)N1CCC(Oc2ccc(OC(=O)c3cc(C(F)(F)F)nn3-c3cccc(C(=N)N)c3)cc2)CC1 [compound of Ex. 57, 4-[(1-ethanimidoylpiperidin-4-yl)oxy]phenyl 1-{3-[amino(imino)methyl]phenyl}-3-(trifluoromethyl)-1H-pyrazole-5-carboxylate 2 trifluoroacetate] | –
